How the values were obtained:
Format in all cases: ADME
[1] = (§1) The drug is tested on Actinomyces naeslundi strain: DSM43013 for biotransformation under anaerobic condition. The drug concentrations were measured over 6 timepoints collected between 0 and 12 hours of incubation by liquid-chromatography-coupled mass spectrometry (LC–MS); parameters: dose 5 uM, timepoint 0, 1.5, 3, 6, 9, 12 hours; settings: actinomyces naeslundii, 5 µM
[2] = The drug is tested on Bifidobacterium longum strain: DSM20088 for biotransformation under anaerobic condition. The drug concentrations were measured over 6 timepoints collected between 0 and 12 hours of incubation by liquid-chromatography-coupled mass spectrometry (LC–MS); parameters: dose 5 uM, timepoint 0, 1.5, 3, 6, 9, 12 hours; settings: 5 µM
[3] = The drug is tested on Collinsella aerofaciens strain: DSM3979 for biotransformation under anaerobic condition. The drug concentrations were measured over 6 timepoints collected between 0 and 12 hours of incubation by liquid-chromatography-coupled mass spectrometry (LC–MS); parameters: dose 5 uM, timepoint 0, 1.5, 3, 6, 9, 12 hours; settings: 5 µM
[4] = The drug is tested on Bacteroides ovatus strain: ATCC 8483 for biotransformation under anaerobic condition. The drug concentrations were measured over 6 timepoints collected between 0 and 12 hours of incubation by liquid-chromatography-coupled mass spectrometry (LC–MS); parameters: dose 5 uM, timepoint 0, 1.5, 3, 6, 9, 12 hours; settings: 5 µM
[5] = The drug is tested on Bacteroides stercoris strain: HM 1036 for biotransformation under anaerobic condition. The drug concentrations were measured over 6 timepoints collected between 0 and 12 hours of incubation by liquid-chromatography-coupled mass spectrometry (LC–MS); parameters: dose 5 uM, timepoint 0, 1.5, 3, 6, 9, 12 hours; settings: 5 µM
[6] = The drug is tested on Bacteroides thetaiotaomicron strain: DSM2079 for biotransformation under anaerobic condition. The drug concentrations were measured over 6 timepoints collected between 0 and 12 hours of incubation by liquid-chromatography-coupled mass spectrometry (LC–MS); parameters: dose 5 uM, timepoint 0, 1.5, 3, 6, 9, 12 hours; settings: 5 µM
[7] = The drug is tested on Bacteroides vulgatus strain: DSM1447 for biotransformation under anaerobic condition. The drug concentrations were measured over 6 timepoints collected between 0 and 12 hours of incubation by liquid-chromatography-coupled mass spectrometry (LC–MS); parameters: dose 5 uM, timepoint 0, 1.5, 3, 6, 9, 12 hours; settings: phocaeicola vulgatus, 5 µM
[8] = The drug is tested on Odoribacter splanchnicus strain: DSM20712 for biotransformation under anaerobic condition. The drug concentrations were measured over 6 timepoints collected between 0 and 12 hours of incubation by liquid-chromatography-coupled mass spectrometry (LC–MS); parameters: dose 5 uM, timepoint 0, 1.5, 3, 6, 9, 12 hours; settings: 5 µM
[9] = The drug is tested on Clostridium bolteae strain: DSM15670 for biotransformation under anaerobic condition. The drug concentrations were measured over 6 timepoints collected between 0 and 12 hours of incubation by liquid-chromatography-coupled mass spectrometry (LC–MS); parameters: dose 5 uM, timepoint 0, 1.5, 3, 6, 9, 12 hours; settings: enterocloster bolteae, 5 µM
[10] = The drug is tested on Coprococcus comes strain: ATCC27758 for biotransformation under anaerobic condition. The drug concentrations were measured over 6 timepoints collected between 0 and 12 hours of incubation by liquid-chromatography-coupled mass spectrometry (LC–MS); parameters: dose 5 uM, timepoint 0, 1.5, 3, 6, 9, 12 hours; settings: 5 µM
[11] = The drug is tested on Roseburia intestinalis strain: DSM14610 for biotransformation under anaerobic condition. The drug concentrations were measured over 6 timepoints collected between 0 and 12 hours of incubation by liquid-chromatography-coupled mass spectrometry (LC–MS); parameters: dose 5 uM, timepoint 0, 1.5, 3, 6, 9, 12 hours; settings: 5 µM
[12] = The drug is tested on Ruminococcus gnavus strain: ATCC29149 for biotransformation under anaerobic condition. The drug concentrations were measured over 6 timepoints collected between 0 and 12 hours of incubation by liquid-chromatography-coupled mass spectrometry (LC–MS); parameters: dose 5 uM, timepoint 0, 1.5, 3, 6, 9, 12 hours; settings: mediterraneibacter gnavus, 5 µM
[13] = The drug is tested on Streptococcus mitis strain: DSM12643 for biotransformation under anaerobic condition. The drug concentrations were measured over 6 timepoints collected between 0 and 12 hours of incubation by liquid-chromatography-coupled mass spectrometry (LC–MS); parameters: dose 5 uM, timepoint 0, 1.5, 3, 6, 9, 12 hours; settings: 5 µM
[14] = The drug is tested on Escherichia coli strain: DSM27469 for biotransformation under anaerobic condition. The drug concentrations were measured over 6 timepoints collected between 0 and 12 hours of incubation by liquid-chromatography-coupled mass spectrometry (LC–MS); parameters: dose 5 uM, timepoint 0, 1.5, 3, 6, 9, 12 hours; settings: 5 µM
[15] = (§2) The drug is tested on Alloscardovia omnicolens strain: DSM21503 for biotransformation under microaerobic condition. The drug concentrations were measured over 6 timepoints collected between 0 and 12 hours of incubation by liquid-chromatography-coupled mass spectrometry (LC–MS); parameters: dose 5 uM, timepoint 0, 1.5, 3, 6, 9, 12 hours; settings: 5 µM
[16] = The drug is tested on Bifidobacterium longum strain: DSM20088 for biotransformation under microaerobic condition. The drug concentrations were measured over 6 timepoints collected between 0 and 12 hours of incubation by liquid-chromatography-coupled mass spectrometry (LC–MS); parameters: dose 5 uM, timepoint 0, 1.5, 3, 6, 9, 12 hours; settings: 5 µM
[17] = The drug is tested on Gemella morbillorum strain: DSM20572 for biotransformation under microaerobic condition. The drug concentrations were measured over 6 timepoints collected between 0 and 12 hours of incubation by liquid-chromatography-coupled mass spectrometry (LC–MS); parameters: dose 5 uM, timepoint 0, 1.5, 3, 6, 9, 12 hours; settings: 5 µM
[18] = The drug is tested on Enterococcus faecalis strain: ATCC29212 for biotransformation under microaerobic condition. The drug concentrations were measured over 6 timepoints collected between 0 and 12 hours of incubation by liquid-chromatography-coupled mass spectrometry (LC–MS); parameters: dose 5 uM, timepoint 0, 1.5, 3, 6, 9, 12 hours; settings: 5 µM
[19] = as §1, with “the gut metagenome community of A-03 with ENA study accession number: PRJEB31790” for “Actinomyces naeslundi strain: DSM43013”, “7” for “6”; parameters: dose 5 uM, timepoint 0, 0.75, 1.5, 3, 6, 9, 12 hours; settings: 5 µM
[20] = as §1, with “the gut metagenome community of A-04 with ENA study accession number: PRJEB31790” for “Actinomyces naeslundi strain: DSM43013”, “7” for “6”; parameters: dose 5 uM, timepoint 0, 0.75, 1.5, 3, 6, 9, 12 hours; settings: 5 µM
[21] = as §1, with “the gut metagenome community of A-08 with ENA study accession number: PRJEB31790” for “Actinomyces naeslundi strain: DSM43013”, “7” for “6”; parameters: dose 5 uM, timepoint 0, 0.75, 1.5, 3, 6, 9, 12 hours; settings: 5 µM
[22] = as §1, with “the gut metagenome community of P-03 with ENA study accession number: PRJEB31790” for “Actinomyces naeslundi strain: DSM43013”, “7” for “6”; parameters: dose 5 uM, timepoint 0, 0.75, 1.5, 3, 6, 9, 12 hours; settings: 5 µM
[23] = as §1, with “the gut metagenome community of T-01 with ENA study accession number: PRJEB31790” for “Actinomyces naeslundi strain: DSM43013”, “7” for “6”; parameters: dose 5 uM, timepoint 0, 0.75, 1.5, 3, 6, 9, 12 hours; settings: 5 µM
[24] = as §2, with “the gut metagenome community of A-02 with ENA study accession number: PRJEB31790” for “Alloscardovia omnicolens strain: DSM21503”, “7” for “6”; parameters: dose 5 uM, timepoint 0, 0.75, 1.5, 3, 6, 9, 12 hours; settings: 5 µM
[25] = as §2, with “the gut metagenome community of A-04 with ENA study accession number: PRJEB31790” for “Alloscardovia omnicolens strain: DSM21503”, “7” for “6”; parameters: dose 5 uM, timepoint 0, 0.75, 1.5, 3, 6, 9, 12 hours; settings: 5 µM
[26] = as §2, with “the gut metagenome community of A-07 with ENA study accession number: PRJEB31790” for “Alloscardovia omnicolens strain: DSM21503”, “7” for “6”; parameters: dose 5 uM, timepoint 0, 0.75, 1.5, 3, 6, 9, 12 hours; settings: 5 µM
[27] = as §2, with “the gut metagenome community of P-02 with ENA study accession number: PRJEB31790” for “Alloscardovia omnicolens strain: DSM21503”, “7” for “6”; parameters: dose 5 uM, timepoint 0, 0.75, 1.5, 3, 6, 9, 12 hours; settings: 5 µM
[28] = as §2, with “the gut metagenome community of T-01 with ENA study accession number: PRJEB31790” for “Alloscardovia omnicolens strain: DSM21503”, “7” for “6”; parameters: dose 5 uM, timepoint 0, 0.75, 1.5, 3, 6, 9, 12 hours; settings: 5 µM
[29] = as §2, with “the gut metagenome community of T-03 with ENA study accession number: PRJEB31790” for “Alloscardovia omnicolens strain: DSM21503”, “7” for “6”; parameters: dose 5 uM, timepoint 0, 0.75, 1.5, 3, 6, 9, 12 hours; settings: 5 µM
[30] = as §2, with “the gut metagenome community of T-04 with ENA study accession number: PRJEB31790” for “Alloscardovia omnicolens strain: DSM21503”, “7” for “6”; parameters: dose 5 uM, timepoint 0, 0.75, 1.5, 3, 6, 9, 12 hours; settings: 5 µM

Measured: Bacterial Biotransformation

CCOc1nc2cccc(C(=O)O)c2n1Cc1ccc(-c2ccccc2-c2nnn[nH]2)cc1
Compound NOT metabolized: all assays above

From ChEMBL document CHEMBL5724806, “Unraveling interindividual differences and functional consequences of gut microbial metabolism of immunosuppressants” (2024)
